In brackets after ≈: the same amount, converted by molar mass.
Legend:
Assay in all cases: Colony assay of hematopoietic progenitors
Assay type in all cases: cell-based
Details in all cases: Homo sapiens, read-out: IC50 for colony formation
BFU-E = system: BFU-E
CFU-GM = system: CFU-GM
CFU-Mix = system: CFU-Mix

IC50 (BFU-E): 3.1 ng/mL (≈ 5.73 nM)
IC50 (CFU-GM): 4.4 ng/mL (≈ 8.14 nM)
IC50 (CFU-Mix): 7.8 ng/mL (≈ 14.4 nM)
SMILES: C/C=C1\NC(=O)[C@H]2CSSCC/C=C/[C@H](CC(=O)N[C@H](C(C)C)C(=O)N2)OC(=O)[C@H](C(C)C)NC1=O [FK228]

From article PMC5926292 (Japanese Journal of Cancer Research : Gann, 2000)
